Results from patent US9139577B2, “Sulfoximine substituted quinazolines for pharmaceutical compositions” (Boehringer Ingelheim International GmbH, priority 2013, dated 2015).

The molecules below were run against MNK2a (Homo sapiens (Human), UniProt Q9HBH9) (assay: MNK2a in vitro kinase assay (Assay 2), ADP-Glo). Conditions: read-out: MNK2 IC50.
Type: biochemical
Method: B. MNK2a In vitro Kinase Assay (Assay 2)
ASSAY SETUP: The inhibition of kinase activity of MNK2a was assessed using pre-activated GST-MNK2a. The white, 384-well OptiPlate F plates were purchased from PerkinElmer. The ADP-Glo Kinase Assay (including ultra pure ATP) was purchased from Promega (V9103). Activated MNK2a was obtained as described in WO2011/104340. […] ID No. 5 of WO 2011/104340 by the C-terminal —CONH2 group, was purchased from Thermo Fisher Scientific. All other materials were of highest grade commercially available. Compounds are tested in either serial dilutions or single dose concentrations. The compound stock solutions are 10 mM in 100% DMSO The serial compound dilutions are prepared in 100% DMSO followed by 1:27.3 intermediate dilution in assay buffer. The final DMSO concentration in assay will be <3%. In the 384-well plates 3 μl of test compound from the intermediate dilution is mixed with 4 μl of the activated MNK2 enzyme (final concentration of 10 nM) and 4 μl of the peptide (final concentration of 25 μM)/ultra pure ATP (final concentration of 20 μM), all dissolved in assay buffer. This step is followed by an incubation time of 90 min, then 10 μl of ADP Glo reagent are added, followed by 40 min of incubation. Then 20 μl of kinase detection reagent are admixed. The plates are sealed and after an incubation period of 30 min, the luminescence signal is measured in an Envision reader to determine the amount of produced ADP. All incubation steps are performed at room temperature. The assay buffer consists of 20 mM HEPES, 2 mM DTT, 0.01% BSA, 20 mM MgCl2 and 0.1% Pluronic F-127.
The luminescent signal generated is proportional to the ADP concentration produced and is correlated with activated MNK2 activity. The analysis of the data is performed by the calculation of the percentage of ATP consumption of activated MNK2 in the presence of the test compound compared to the consumption of ATP in the presence of activated MNK2 without compound. (RLU(sample)−RLU(low control))*100/(RLU(high value)−RLU(low control)) [RLU=relative luminescence units]
[…] values based on dose response curves are calculated with the AssayExplorer software.

Chain of MNK2a (Q9HBH9 whole entry): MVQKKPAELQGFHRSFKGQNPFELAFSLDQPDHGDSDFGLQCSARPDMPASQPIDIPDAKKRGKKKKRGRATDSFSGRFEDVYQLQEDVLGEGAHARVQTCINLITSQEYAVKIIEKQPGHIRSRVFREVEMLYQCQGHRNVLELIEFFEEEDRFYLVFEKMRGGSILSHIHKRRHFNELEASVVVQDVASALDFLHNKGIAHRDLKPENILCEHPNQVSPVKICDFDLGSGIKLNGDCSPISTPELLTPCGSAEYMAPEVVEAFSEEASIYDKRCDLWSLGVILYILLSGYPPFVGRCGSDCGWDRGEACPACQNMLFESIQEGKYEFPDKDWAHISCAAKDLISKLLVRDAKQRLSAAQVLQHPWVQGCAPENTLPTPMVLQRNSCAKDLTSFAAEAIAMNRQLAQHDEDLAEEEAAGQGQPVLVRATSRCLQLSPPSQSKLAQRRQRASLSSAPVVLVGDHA

SMILES	IC50 [nM]
Cc1cc(N=S(C)(C)=O)cc2ncnc(Nc3ccc(F)cc3O[C@H](C)C(=O)N[C@@H](C)C(F)(F)F)c12 [Example 4.127]	2
Cc1cc(N=S2(=O)CCC2)cc2ncnc(Nc3ccc(F)cc3O[C@H](C)C(=O)NC34CC(C3)C4)c12 [Example 4.082]	2
Cc1cc(N=S(C)(C)=O)cc2ncnc(Nc3ccc(F)cc3OCC#N)c12 [Example 3.005]	1
Cc1cc(N=S(C)(C)=O)cc2ncnc(Nc3ccc(F)cc3O[C@H](C)C(=O)N3CC[S+]([O-])CC3)c12 [Example 4.030]	11
CC(NC(=O)[C@@H](C)Oc1cc(F)ccc1Nc1ncnc2cc(N=S(C)(C)=O)cc(F)c12)C(F)F (some centres unmarked) [Example 4.083]	8
C[C@@H](Oc1cc(F)ccc1Nc1ncnc2cc(N=S3(=O)CC(C)(C)C3)cc(Cl)c12)C(=O)NCC(F)(F)F [Example 2.037]	2
Cc1cc(N=S2(=O)CCCC2)cc2ncnc(Nc3cccnc3O[C@H](C)C(=O)NCC(F)(F)F)c12 [Example 2.022]	2
Cc1cc(N=S(C)(C)=O)cc2ncnc(Nc3ccc(F)cc3O[C@H](CO)C(=O)NCC(F)(F)F)c12 [Example 7.011]	3
C[C@@H](Oc1cc(F)ccc1Nc1ncnc2cc(N=S3(=O)CCC3)cc(F)c12)C(=O)NCC(F)(F)C(F)(F)F [Example 4.129]	2
C[C@@H](C#N)NC(=O)[C@@H](C)Oc1cc(F)ccc1Nc1ncnc2cc(N=S3(=O)CCC3)cc(Cl)c12 [Example 4.137]	1
C[C@@H](Oc1cc(F)ccc1Nc1ncnc2cc(N=S(C)(=O)C3CCOCC3)cc(F)c12)C(=O)NCC(F)(F)F (some centres unmarked) [Example 2.025]	7
Cc1cc(N=S2(=O)CCCC2)cc2ncnc(Nc3ccc(F)cc3O[C@H](C)C(=O)NCC(F)F)c12 [Example 4.043]	2
Cc1cc(N=S(C)(C)=O)cc2ncnc(Nc3cccnc3OC(C)C(F)(F)F)c12 (centres unmarked) [Example 1.017]	12
Cc1cc(N=S2(=O)CC(C)(C)C2)cc2ncnc(Nc3ccc(F)cc3O[C@H](C)C(=O)NCC(F)(F)F)c12 [Example 2.044]	1
COc1cc(N=S2(=O)CCC2)cc2ncnc(Nc3ccc(F)cc3O[C@H](C)C(=O)NCC(F)(F)F)c12 [Example 2.047]	3
Cc1cc(N=S2(=O)CCC2)cc2ncnc(Nc3ccc(F)cc3O[C@H](C)C(=O)NCCF)c12 [Example 4.107]	2
Cc1cc(N=S(C)(C)=O)cc2ncnc(Nc3ccc(F)cc3O[C@@H](C)CN)c12 [Example 3.024]	16
Cc1cc(N=S(C)(C)=O)cc2ncnc(Nc3ccc(F)cc3OC(C)Cn3ccnc3)c12 (centres unmarked) [Example 3.004]	17
Cc1cc(N=S(C)(=O)C2CCOCC2)cc2ncnc(Nc3ccc(F)cc3O[C@H](C)C(=O)NCC(F)(F)F)c12 (some centres unmarked) [Example 2.029]	4
COC(=O)N1CC2(C1)CS(=O)(=Nc1cc(C)c3c(Nc4ccc(F)cc4O[C@H](C)C(=O)NCC(F)(F)F)ncnc3c1)C2 [Example 2.032]	1

SMILES	IC50 [nM]
COc1cc(N=S2(=O)CCC2)cc2ncnc(Nc3ccc(F)cc3O[C@H](C)C(=O)N[C@@H](C)C(F)(F)F)c12 [Example 4.098]	4
C[C@@H](Oc1cc(F)ccc1Nc1ncnc2cc(N=S(C)(C)=O)cc(F)c12)C(=O)NC(CF)CF [Example 4.121]	5
Cc1noc(C(C)Oc2cc(F)ccc2Nc2ncnc3cc(N=S(C)(C)=O)cc(C)c23)n1 (centres unmarked) [Example 3.036]	9
Cc1cc(N=S(C)(C)=O)cc2ncnc(Nc3ccc(F)cc3O[C@H](C)C(=O)NC(CF)CF)c12 [Example 4.101]	3
C[C@H](NC(=O)[C@@H](C)Oc1cc(F)ccc1Nc1ncnc2cc(N=S3(=O)CCC3)cc(Cl)c12)C(F)(F)F [Example 4.096]	1
C[C@@H](C#N)NC(=O)[C@@H](C)Oc1cc(Cl)ccc1Nc1ncnc2cc(N=S3(=O)CCC3)cc(F)c12 [Example 4.077]	2
Cc1cc(N=S2(=O)CC3(COC3)C2)cc2ncnc(Nc3ccc(F)cc3O[C@H](C)C(=O)NCC(F)(F)F)c12 [Example 2.038]	3
C[C@@H](Oc1cc(F)ccc1Nc1ncnc2cc(N=S(C)(C)=O)cc(Cl)c12)C(=O)NCC(F)(F)F [Example 4.091]	1
Cc1cc(N=S2(=O)CCCC2)cc2ncnc(Nc3ccc(F)cc3O[C@H](C)C(=O)N(C)C3CCCC3)c12 [Example 4.026]	3
Cc1cc(N=S2(=O)CCC2)cc2ncnc(Nc3ccc(F)cc3O[C@H](CO)CF)c12 [Example 2.036]	4
C[C@@H](Oc1cc(F)ccc1Nc1ncnc2cc(N=S(C)(C)=O)cc(C(F)(F)F)c12)C(=O)NCC(F)(F)F [Example 4.086]	2
Cc1cc([C@@H](C)Oc2cc(F)ccc2Nc2ncnc3cc(N=S4(=O)CCNCC4)cc(C)c23)on1 [Example 2.016]	1
CCC(Oc1cc(F)ccc1Nc1ncnc2cc(N=S(C)(C)=O)cc(C)c12)C(=O)OC (centres unmarked) [Example 3.017]	138
Cc1cc(N=S2(=O)CCC(C)C2)cc2ncnc(Nc3ccc(F)cc3O[C@H](C)C(=O)NCC(F)(F)F)c12 (some centres unmarked) [Example 2.035]	2
Cc1cc(N=S(C)(C)=O)cc2ncnc(Nc3cccnc3O[C@H](C)C(=O)NCC(F)(F)F)c12 [Example 2.013]	2
Cc1cc(N=S2(=O)CCC2)cc2ncnc(Nc3ccc(Cl)cc3O[C@H](C)C(=O)NC(C)C(F)F)c12 (some centres unmarked) [Example 4.125]	1
Cc1cc(N=S(C)(C)=O)cc2ncnc(Nc3ccc(Cl)cc3O[C@H](C)C(=O)NCC(F)F)c12 [Example 4.142]	2
Cc1cc(N=S2(=O)CCC2)cc2ncnc(Nc3ccc(F)cc3O[C@H](C)C(=O)NCCCF)c12 [Example 4.144]	2
COc1cc(N=S(C)(C)=O)cc2ncnc(Nc3ccc(F)cc3O[C@H](C)C(=O)NCC(F)(F)F)c12 [Example 3.040]	6
C[C@@H](Oc1cc(F)ccc1Nc1ncnc2cc(N=S3(=O)CCC3)cc(F)c12)C(=O)NCC#N [Example 4.097]	1

SMILES	IC50 [nM]
CC(Oc1ncccc1Nc1ncnc2cc(N=S(C)(C)=O)cc(F)c12)C(F)(F)F (centres unmarked) [Example 1.007]	8
Cc1cc(N=S(C)(C)=O)cc2ncnc(Nc3ccc(F)cc3O[C@H](C)C(=O)N3CCC(=O)CC3)c12 [Example 4.046]	15
Cc1cc(N=S(C)(C)=O)cc2ncnc(Nc3ccc(F)cc3O[C@H](C)C(=O)N(CC(F)F)CC(F)F)c12 [Example 3.053]	2
C[C@@H](C#N)NC(=O)[C@@H](C)Oc1cc(F)ccc1Nc1ncnc2cc(N=S3(=O)CCC3)cc(F)c12 [Example 4.106]	2
Cc1cc(N=S(C)(C)=O)cc2ncnc(Nc3ccc(F)cc3O[C@H](CO)C(N)=O)c12 [Example 7.012]	46
Cc1cc(N=S2(=O)CC[C@@H](N)C2)cc2ncnc(Nc3ccc(F)cc3O[C@H](C)C(=O)NCC(F)(F)F)c12 (some centres unmarked) [Example 2.020]	3
CCCNC(=O)[C@@H](C)Oc1cc(F)ccc1Nc1ncnc2cc(N=S3(=O)CCCC3)cc(C)c12 [Example 4.033]	2
Cc1cc(N=S(C)(C)=O)cc2ncnc(Nc3ccc(F)cc3OC(C)C3CCCO3)c12 (centres unmarked) [Example 3.010]	23
Cc1cc(N=S(C)(C)=O)cc2ncnc(Nc3ccc(F)cc3OC(C)Cn3cccn3)c12 (centres unmarked) [Example 3.034]	58
CCN(CC)C(=O)[C@@H](C)Oc1cc(F)ccc1Nc1ncnc2cc(N=S3(=O)CCCC3)cc(C)c12 [Example 4.025]	3
Cc1cc(N=S(C)(C)=O)cc2ncnc(Nc3ccc(F)cc3O[C@H](C)C(=O)NCC#N)c12 [Example 4.039]	1
COc1cc(N=S2(=O)CCC2)cc2ncnc(Nc3ccc(F)cc3O[C@H](C)C(=O)NCC#N)c12 [Example 4.115]	2
C[C@@H](Oc1cc(F)ccc1Nc1ncnc2cc(N=S3(=O)CCC3)cc(F)c12)C(=O)NCC(F)F [Example 4.123]	3
CC(NC(=O)[C@@H](C)Oc1cc(F)ccc1Nc1ncnc2cc(N=S3(=O)CCC3)cc(Cl)c12)C(F)F (some centres unmarked) [Example 4.126]	2
Cc1cc(N=S2(=O)CCC2)cc2ncnc(Nc3ccc(F)cc3O[C@H](C)C(=O)N(CC(F)(F)F)CC(F)(F)F)c12 [Example 3.052]	3
C[C@@H](Oc1cc(F)ccc1Nc1ncnc2cc(N=S3(=O)CCCC3)cc(F)c12)C(=O)NCC#N [Example 2.033]	4
Cc1cc(N=S(C)(C)=O)cc2ncnc(Nc3ccc(F)cc3OC(C)c3ccnn3C)c12 (centres unmarked) [Example 3.023]	42
C[C@@H](Oc1ncccc1Nc1ncnc2cc(N=S(C)(C)=O)cc(F)c12)C(=O)NCC(F)(F)F [Example 2.031]	10
Cc1cc(N=S2(=O)CCC2)cc2ncnc(Nc3ccc(F)cc3O[C@H](C)C(=O)NC(C)C)c12 [Example 4.081]	2
